Measured values taken from patent US20260242738A1, “ALK5 INHIBITORS FOR EFFICIENT DERIVATION OF MESENCHYMAL STEM CELLS FROM EMBRYONIC STEM CELLS” (SCRIPPS HEALTH, priority 2022, published 2026).

Assays:
HADC 100 ES-MSC = assay: Chondrogenic gene expression of pellets relative to monolayer controls; format: cell-based, human; conditions: HADC 100 ES-MSC pellets
Experimental: (§1) Monolayer-expanded ES-MSC (passage 2-5) were detached using Accutase® and 0.5×10^6 cells in 0.5 ml of chondrogenic medium were centrifuged at 900 rpm (~770 G) for 5 minutes to form high-density pellets. At least 5-6 pellets, for each ES-MSC condition, were cultured in serum-free chondrogenic medium consisting of Dulbecco's Modified Eagle Medium (Mediatech Inc., Manassas, VA), 1×ITS supplement (Sigma-Aldrich, St. Louis, MO), 100 nM Dexamethasone (Sigma), 1.25 mg/ml human serum albumin (Bayer, Leverkusen, Germany), 100 μM ascorbic acid 2-phosphate (Sigma), 1% penicillin/streptomycin/gentamycin (PSG, Gibco, Carlsbad, CA), and 10 ng/ml TGFβ3 (PeproTech, Rocky Hill, NJ). Pellets for ex vivo implantation were cultured for 3 days before implantation; pellets for histologic or gene expression analysis were maintained in culture for 3 weeks with media changes every 3 to 4 days.
(§2) Total RNA was extracted from using the RNeasy kit as recommended by the manufacturer (QIAGEN, Valencia, CA). […] Expression of the following genes was quantified POU5F1/OCT4 and SOX2 (for pluripotency); FOXA1 and SOX17 (for endoderm); NES and PAX6 (for ectoderm); NKX2-5, MSX1, NCAM1, and SOX9 (for mesoderm); ITGB1/CD29 (for MSC phenotype); and COL1A1, COL2A1, COL10A1, COMP, ACAN, and SOX9 and RUNX2 (for chondrogenesis). […]

H9 ES-MSC = assay: as above; format: cell-based, human
Experimental: as §1, §2

NC(=O)c1ccc(-c2nc(-c3ccc4c(c3)OCO4)c(-c3ccccn3)[nH]2)cc1 [SB431542]
chondrogenic genes (COL2A1, ACAN, COMP and SOX9) relative to monolayer controls (HADC 100 ES-MSC): higher levels | chondrogenic genes (COL2A1, ACAN, COMP and SOX9) relative to monolayer controls (H9 ES-MSC): higher levels
